Source: patent publication US6756206B2, “Adsorption and removal of endotoxin from physiological fluids using cationic helix peptides” (Commonwealth Biotechnologies, Inc., priority 1998, dated 2004)
Where two headings read alike, the source gives them in different places. No end group written: not given here.

B1: rHBP: recombinant heparin binding protein; formerly known as cationic antimicrobial protein or bactericidal/permeability increasing factor (protein, UniProt P20160 27-248, looked up)
Azurocidin: IVGGRKARPRQFPFLASIQNQGRHFCGGALIHARFVMTAASCFQSQNPGVSTVVLGAYDLRRRERQSRQTFSISSMSENGYDPQQNLNDLMLLQLDREANLTSSVTILPLPLQNATVEAGTRCQVAGWGSQRSGGRLSRFPRFVNVTVTPEDQCRPNNVCTGVLTRRGGICNGDGGTPLVCEGLAHGVASFSLGPCGRGPDFFTRVALFRDWIDGVLNNPGP

Key:
[1] = Neutralization of endotoxin purposely added to plasma or buffer, kinetic chromogenic Limulus amebocyte lysate endotoxin assay; assay type: biochemical; details: for neutralization (binding) of endotoxin, in words: endotoxin added to plasma or aqueous samples; for Percent binding of Endotoxin: plasma, endotoxin 10 ng/mL
Method: The presence of endotoxin may routinely be measured using, for example, a kinetic chromogenic method. The assay involves a complete set of enzyme reactions which are described in detail in the following publications, each of which is hereby incorporated by reference.
In the course of the endotoxin assay, a calibration curve is prepared which is a plot of logarithm of the time of the kinetic endpoint of a chromogenic reaction versus the logarithm of known concentrations of endotoxin.
Thus, if endotoxin is added to aqueous buffer solutions or to plasma the amount of endotoxin present can be assayed by reference to the calibration curve. Similarly, if plasma, plasma fractions, patient samples or any test solution contains an endogenous level of endotoxin, the level can also be determined by reference to the calibration curve.
Endotoxin was purposely added to plasma to a final concentration of 10 ng/mL and increasing concentrations of the compounds Arg Helix #2 (a monomeric cationic helix peptide), Bis Arg Helix #2 (which contains 2 copies of Arg Helix #2), Tris Arg Helix #3 (which contains 3 copies of Arg Helix #3), Tetra Arg Helix #3 (4 copies of Arg Helix #3) or Tris Arg Helix #3 (constrained) (3 copies of Arg Helix #3 constrained by design to present a “binding groove” within the molecule) were added to these same samples (Table 1).

[2] = cited from earlier work

| Molecule | neutralization (binding) of endotoxin, in words [1] | Percent binding of Endotoxin ([1]; peptide concentration 0.01 mg/mL) [%] | Percent binding of Endotoxin ([1]; peptide concentration 0.1 mg/mL) [%] | Percent binding of Endotoxin ([1]; peptide concentration 0.5 mg/mL) [%] | Percent binding of Endotoxin ([1]; peptide concentration 1.0 mg/mL) [%] | Survival ([2]; animals treated with cefoxitin and rHBP, compared to controls) | Survival ([2]; mice pretreated well in advance) | Survival ([2]; treated at the time of ligation and puncture, versus control group) |
| --- | --- | --- | --- | --- | --- | --- | --- | --- |
| Bis Arg Helix #2: contains 2 copies of Arg Helix #2; SEQ ID NOS.:2 and 3, FIG. 1A (chain 1 ARAARRAARAAARRARAEA; chain 2 AEARARRAAARAARRAARA; also: two copies linked, linkage not given here) | very little neutralization (binding) activity | 0.00 | 24.7 | 51.2 | 63.5 | – | – | – |
| protamine [reference compound] | ineffective in neutralizing endotoxin | – | – | – | – | – | – | – |
| B1 | – | – | – | – | – | increased significantly | increased | not significantly different |
